Where two headings read alike, the source gives them in different places.

Assay [1] has as its target T1, human fibroblast collagenase (Homo sapiens, UniProt P03956).
T1 sequence (P03956 100-469): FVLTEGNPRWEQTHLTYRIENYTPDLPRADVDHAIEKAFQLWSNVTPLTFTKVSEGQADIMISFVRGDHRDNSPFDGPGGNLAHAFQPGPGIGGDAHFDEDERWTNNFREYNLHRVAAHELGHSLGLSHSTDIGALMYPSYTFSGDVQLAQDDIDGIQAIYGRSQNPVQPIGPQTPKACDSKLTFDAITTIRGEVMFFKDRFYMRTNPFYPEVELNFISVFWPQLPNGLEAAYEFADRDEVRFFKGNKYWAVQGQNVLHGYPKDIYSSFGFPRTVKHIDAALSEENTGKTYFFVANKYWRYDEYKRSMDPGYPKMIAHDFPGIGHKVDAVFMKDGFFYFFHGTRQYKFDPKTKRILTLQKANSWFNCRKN
Nature of the assay: Inhibition of human fibroblast collagenase (MMP-1), 14C-acetylated collagen. The conditions noted are these: for inhibition at 100 µM: read-out: % I (inhibition), Fib. Collag. (MMP-1); for IC50: 37° C., 16 hours, pH 7.5, read-out: In vitro inhibitory activity IC50, Fib. Collag. (MMP-1). Format: biochemical.
Excerpt: The samples were centrifuged to sediment undigested collagen, and an aliquot of the radioactive supernatant removed for assay on a scintillation counter as a measure of hydrolysis.

Assay [2] deals with T2, stromelysin-1 (Homo sapiens, UniProt P08254). As to conditions: read-out: In vitro inhibitory activity IC50, Stromelysin-1 (MMP-3); 37° C., 16 hours, pH 7.5.
Excerpt: (§1) The casein was acetylated ^14 C casein prepared by the method of Cawston et al. (ibid.).
Assay [3] addresses T3, 72 kDa gelatinase (Homo sapiens, UniProt P08253).
T3 sequence (P08253 110-660): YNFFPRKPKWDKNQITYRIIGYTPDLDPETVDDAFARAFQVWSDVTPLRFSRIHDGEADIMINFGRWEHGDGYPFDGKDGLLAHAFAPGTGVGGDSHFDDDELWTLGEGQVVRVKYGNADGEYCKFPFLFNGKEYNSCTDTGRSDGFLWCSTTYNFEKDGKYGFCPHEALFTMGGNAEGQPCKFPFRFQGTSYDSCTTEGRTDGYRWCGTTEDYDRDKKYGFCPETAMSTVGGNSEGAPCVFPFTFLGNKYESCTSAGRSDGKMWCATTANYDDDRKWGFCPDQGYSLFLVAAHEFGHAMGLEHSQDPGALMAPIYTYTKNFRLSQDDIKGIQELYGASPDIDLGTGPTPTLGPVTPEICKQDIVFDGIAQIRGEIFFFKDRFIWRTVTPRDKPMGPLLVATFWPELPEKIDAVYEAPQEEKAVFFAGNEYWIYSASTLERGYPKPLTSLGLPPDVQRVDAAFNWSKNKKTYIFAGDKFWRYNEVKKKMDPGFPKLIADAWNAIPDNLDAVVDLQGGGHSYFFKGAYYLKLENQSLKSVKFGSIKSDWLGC
The conditions noted are these: read-out: In vitro inhibitory activity IC50, Gelatinase A (MMP-2); 37° C., 16 hours; enzyme from RPMI-7951 cells.

For assay [4], the target named is T4, recombinant matrilysin (PUMP-1) (Homo sapiens, UniProt P09237).
T4 sequence (P09237 95-267): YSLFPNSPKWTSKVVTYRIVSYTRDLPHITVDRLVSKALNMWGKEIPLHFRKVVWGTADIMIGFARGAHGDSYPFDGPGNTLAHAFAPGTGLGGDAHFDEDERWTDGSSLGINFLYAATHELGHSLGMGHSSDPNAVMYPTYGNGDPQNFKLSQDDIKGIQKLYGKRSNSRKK
Kind of assay: Inhibition of recombinant matrilysin (PUMP-1, MMP-7), 14C-acetylated casein. In kind it is biochemical. As to conditions: 37° C., 16 hours, pH 7.6; read-out: In vitro inhibitory activity IC50, Matrilysin (MMP-7).

Assay [5] concerns the target T2, stromelysin-1. Nature of the assay: biochemical.
Excerpt: as §1
Assay [6] deals with T3, 72 kDa gelatinase. Kind of assay: biochemical.

T2 sequence (P08254 100-477, species assumed): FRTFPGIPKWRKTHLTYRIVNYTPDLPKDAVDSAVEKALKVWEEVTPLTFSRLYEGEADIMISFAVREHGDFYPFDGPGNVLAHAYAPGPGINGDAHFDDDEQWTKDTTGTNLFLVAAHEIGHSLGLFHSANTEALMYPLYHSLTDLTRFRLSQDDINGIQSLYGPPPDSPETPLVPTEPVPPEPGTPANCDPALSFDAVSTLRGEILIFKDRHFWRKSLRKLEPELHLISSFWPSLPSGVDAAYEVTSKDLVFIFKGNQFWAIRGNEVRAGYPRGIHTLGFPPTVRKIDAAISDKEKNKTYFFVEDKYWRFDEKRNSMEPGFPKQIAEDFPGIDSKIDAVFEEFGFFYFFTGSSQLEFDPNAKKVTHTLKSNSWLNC

Broadly, the inhibition is the change of the read-out against control, counted positive when it falls. By IC50 is commonly meant the point on the concentration scale where inhibition reaches its midpoint. Turning to `CC(C)(C)[C@H](NC(=O)[C@H](C/C=C/c1ccccc1)[C@H](O)C(=O)NO)C(=O)NC(c1ccccc1)c1ccccc1` [Example 9, N^4-[1S-(Benzhydryl-carbamoyl)-2,2-dimethyl-propyl]-2S,N^1-dihydroxy-3R-(3-phenyl-allyl)-succinamide], the inhibition at 100 µM in assay [1] is 30%. Moreover, the IC50 on stromelysin-1 [2] came out at 800 nM; on 72 kDa gelatinase [3] it was 40000 nM; in assay [4], 500 nM.

For the molecule `CO[C@H](C(=O)O)[C@@H](CC(C)C)C(=O)N[C@H](C(=O)NC(c1ccccc1)c1ccccc1)C(C)(C)O` [Example 7, N^4-[1S-(Benzhydryl-carbamoyl)-2-hydroxy-2-methyl-propylcarbamoyl]-2S-methoxy-5R-methyl-hexanoic acid], the inhibition at 100 µM is 40% in assay [1] and 50% at 72 kDa gelatinase [6] (read-out: % I (inhibition), Gelatinase A (MMP-2)). For the same molecule, inhibition against stromelysin-1 [5] was half-maximal at 20000 nM (IC50).

`CO[C@H](C(=O)NO)[C@@H](CC(C)C)C(=O)N[C@H](C(=O)NC(c1ccccc1)c1ccccc1)C(C)(C)O` [Example 8]: the IC50 in assay [1] was 700 nM; at stromelysin-1 [5] it was 20 nM; at 72 kDa gelatinase [6] it was 1000 nM; in assay [4] it was 9 nM.

Turning to `CC(C)C[C@@H](C(=O)N[C@H](C(=O)NC(c1ccccc1)c1ccc(Cl)cc1)C(C)(C)C)[C@H](O)C(=O)NO` (stereo partly drawn) [Example 3, N^4-(1S-{[(4-Chloro-phenyl)-phenyl-methyl]-carbamoyl}-2,2-dimethyl-propyl)-2R,N^1-dihydroxy-3R-isobutyl-succinamide], the IC50 was 400 nM in assay [1], 200 nM at stromelysin-1 [5], 2000 nM at 72 kDa gelatinase [6] and 10 nM in assay [4].

Take `CC(C)C[C@@H](C(=O)N[C@H](C(=O)NC(c1ccccn1)c1ccccn1)C(C)(C)C)[C@H](O)C(=O)NO` [Example 11, N^4 -{1S-[(Di-pyridin-2-yl-methyl)-carbamoyl]-2,2-dimethyl-propyl}-2S,N^1-dihydroxy-3R-isobutyl-succinamide]: the half-maximal inhibitory concentration (IC50) in assay [1] amounted to 300 nM; at stromelysin-1 [5], 200 nM; on 72 kDa gelatinase [6], 1000 nM; in assay [4] it was 20 nM.

Regarding `C=CC[C@H](C(=O)NO)[C@@H](CCCCCCCC)C(=O)N[C@H](C(=O)NC(c1ccccc1)c1ccccc1)C(C)(C)C` [Example 13, 2S-Allyl-N^4-[1S-(benzhydryl-carbamoyl)-2,2-dimethyl-propyl]-N^1-hydroxy-3R-octyl-succinamide], the concentration for half-maximal inhibition (IC50) in assay [1] was found to be 30000 nM; at stromelysin-1 [5], 60 nM; against 72 kDa gelatinase [6], 20000 nM; in assay [4] it was 400 nM.

For `CC(C)C[C@@H](C(=O)N[C@H](C(=O)NC(c1ccccc1)c1ccccc1F)C(C)(C)C)[C@H](O)C(=O)NO` (stereo partly drawn) [Example 5, N^4-(1S-{[(2-Fluoro-phenyl)-phenyl-methyl]-carbamoyl}-2,2-dimethyl-propyl)-2S,N^1-dihydroxy-3R-isobutyl-succinamide], the concentration for half-maximal inhibition (IC50) came to 700 nM in assay [1], 100 nM against stromelysin-1 [5], 600 nM against 72 kDa gelatinase [6] and 9 nM in assay [4].

With `CC(C)C[C@@H](C(=O)N[C@H](C(=O)NC1c2ccccc2-c2ccccc21)C(C)(C)C)[C@H](O)C(=O)NO` [Example 2, N^4-[1S-(9H-Fluoren-9-ylcarbamoyl)-2,2-dimethyl-propyl]-2S,N^1-dihydroxy-3R-isobutyl-succinamide], the half-maximal inhibitory concentration (IC50) in assay [1] came to 2000 nM; against stromelysin-1 [5], 200 nM; against 72 kDa gelatinase [6] it was 17000 nM; in assay [4] it was 70 nM.

With `C=CC[C@H](C(=O)NO)[C@@H](CC(C)C)C(=O)N[C@H](C(=O)NC)C(C)(C)C` [Comparator 2, 2S-Allyl-N^4-(2,2-dimethyl-1S-methylcarbamoyl-propyl)-N^1-hydroxy-3R-isobutyl-succinamide, reference compound], the IC50 in assay [4] was found to be 20 nM.

For the molecule `CC(C)C[C@@H](C(=O)N[C@H](C(=O)NC(c1ccccc1)c1ccccc1)C(C)(C)C)[C@H](O)C(=O)NO` [Example 1, N^4-[1S-(Benzhydryl-carbamoyl)-2,2-dimethyl-propyl]-2S,N^1-dihydroxy-3R-isobutyl-succinamide], the concentration for half-maximal inhibition (IC50) came out at 600 nM in assay [1], 50 nM on stromelysin-1 [5], 3000 nM against 72 kDa gelatinase [6] and 4 nM in assay [4].

`CC(C)(C)[C@H](NC(=O)[C@H](CCCc1ccccc1)[C@H](O)C(=O)NO)C(=O)NC(c1ccccc1)c1ccccc1` [Example 10, N^4-[1S-(Benzhydryl-carbamoyl)-2,2-dimethyl-propyl]-2S,N^1-dihydroxy-3R-(3-phenyl-propyl)-succinamide]: the IC50 came to 10000 nM in assay [1] and 1000 nM in assay [4].

For `C=CC[C@H](C(=O)NO)[C@@H](CC(C)C)C(=O)N[C@H](C(=O)NC(c1ccccc1)c1ccccc1)C(C)(C)C` [Example 12, 2S-Allyl-N^4-[1S-(benzhydryl-carbamoyl)-2,2-dimethyl-propyl]-N^1-hydroxy-3R-isobutyl-succinamide], the IC50 in assay [1] stood at 800 nM; against stromelysin-1 [5] it was 80 nM; at 72 kDa gelatinase [6], 40000 nM; in assay [4], 30 nM.

Take `CC(C)C[C@@H](C(=O)N[C@H](C(=O)NC(c1ccccc1)c1ccc(F)cc1)C(C)(C)C)[C@H](O)C(=O)NO` (stereo partly drawn) [Example 4, N^4-(1S-{[(4-Fluoro-phenyl)-phenyl-methyl]-carbamoyl}-2,2-dimethyl-propyl)-2S,N^1-dihydroxy-3-isobutyl-succinamide]: the IC50 was 400 nM in assay [1], 60 nM against stromelysin-1 [5], 500 nM at 72 kDa gelatinase [6] and 9 nM in assay [4].

As to `CC(C)C[C@@H](C(=O)N[C@H](C(=O)NC(c1ccccc1)c1ccccc1)C(C)(C)O)[C@H](O)C(=O)NO` [Example 6, N^4-[1S-(Benzhydryl-carbamoyl)-2-hydroxy-2-methyl-propyl]-2S, N^1-dihydroxy-3R-isobutyl-succinamide], the IC50 is 2000 nM in assay [1], 200 nM against stromelysin-1 [5], 600 nM against 72 kDa gelatinase [6] and 15 nM in assay [4].
